The values below come from patent US20250243488A1, “METHODS OF MODULATING PROGRANULIN EXPRESSION USING ANTISENSE OLIGONUCLEOTIDES TARGETING REGULATORY RNAS” (Camp4 Therapeutics Corporation, priority 2022, published 2025).

Oligonucleotides are written 5' to 3', each unit as a sugar letter and its base; * is a phosphorothioate linkage, no mark a phosphodiester; rarer units and linkages stand in square brackets, end groups in braces. Plain capitals give the bases only. e = 2'-O-(2-methoxyethyl) (MOE); l = locked nucleic acid (LNA); [5mC] = 5-methylcytosine

In this data set the test system is mGrn mRNA. In words: mGrn mRNA qPCR in Neuro2a cells transfected with ASOs. Type of data set: cell-based, mouse. The following applies: for mGRN mRNA FC: Table 14, 100 nM, 48 hours, normalized to sNTC3; for 40 nM FC (mGrn mRNA) / 80 nM FC (mGrn mRNA) / 160 nM FC (mGrn mRNA): transfection. The procedure: 57 ASOs targeting the Grn promoter (− strand) were screened in Neuro2a cells. Neuro2a cells were transfected with 100 nM of each of the ASOs listed in Table 14 and cells were harvested 48 hours later for Grn mRNA quantification using qPCR. Housekeeping genes for normalization were Gapdh and Ppia. Relative Grn mRNA levels were normalized to mRNA extracted from cells treated with sNTC3 (steric nontargeting control).
Next, 26 ASOs based on parent ASOs CO-3544 and CO-3595 were designed with different modifications and base walking. Neuro2a cells were transfected with either […] or 160 nM of each of the ASOs listed in Table 15, and cells were harvested 48 hours later for mGrn mRNA quantification using qPCR. As controls, cells were treated with sNTC3 or no ASO. Housekeeping genes for normalization were Gapdh and Ppia. Relative Grn mRNA levels were normalized to mRNA extracted from cells treated with sNTC3.
CO-3544 was modified to include PO/PS bonds and the efficacy in upregulating mGrn mRNA was determined.
Similarly, CO-3595 was modified to include varying PO/PS internucleotide bonds and the efficacy of these ASOs in upregulating mGrn mRNA was determined in Neuro2A cells.
On the technique in general: Quantitative PCR measures a nucleic acid by following its amplification.

Regarding “CO-3578: ASO targeting the Grn promoter (− strand) (antisense eT*eT*e[5mC]*e[5mC]*eA*eA*e[5mC]*eT*eG*eG*eT*eT*eT*e[5mC]*eG*eA*eG*eT*e[5mC]*e[5mC])”, the “mGRN mRNA FC” value (Neuro2a) worked out at 1.0 FC.

Take “CO-5302: CO-3544 modified to include PO/PS bonds (antisense lG*lT*eT*l[5mC]*eT*l[5mC]*e[5mC]*l[5mC]*eT*lA*eG*l[5mC]*eT*lG*eT*lG*lT*eA*lG*lT)”: under “Table 15, Neuro2a”, the “40 nM FC (mGrn mRNA)” value stood at 1.3 FC, the “80 nM FC (mGrn mRNA)” value is 1.2 FC and the “160 nM FC (mGrn mRNA)” value came to 1.0 FC.

As to “CO-3566: ASO targeting the Grn promoter (− strand) (antisense eG*e[5mC]*eT*eA*eA*eT*eG*eG*eA*eA*eA*eT*eT*eG*eA*eG*eG*eT*eG*eG)”, the “mGRN mRNA FC” value (Neuro2a) was 1.1 FC.

Turning to “CO-3585: ASO targeting the Grn promoter (− strand) (antisense eG*eT*e[5mC]*e[5mC]*e[5mC]*eA*e[5mC]*e[5mC]*eT*eT*eA*eT*e[5mC]*eA*eG*e[5mC]*e[5mC]*eT*e[5mC]*eT)”, the “mGRN mRNA FC” value (Neuro2a) is 1.7 FC.

As to “CO-3597: ASO targeting the Grn promoter (− strand) (antisense eA*e[5mC]*eA*eA*e[5mC]*e[5mC]*e[5mC]*eT*eG*e[5mC]*eA*eT*eG*e[5mC]*eA*e[5mC]*eT*e[5mC]*e[5mC]*eT)”, where the note is “Neuro2a”, the “mGRN mRNA FC” value turned out to be 1.2 FC.

On to “CO-3598: ASO targeting the Grn promoter (− strand) (antisense eT*eA*eA*eG*eA*eA*eG*e[5mC]*e[5mC]*e[5mC]*eT*e[5mC]*eA*e[5mC]*eG*eG*eA*eA*eT*eT)”, for which the “mGRN mRNA FC” value (Neuro2a) was 1.3 FC.

In the case of “CO-3592: ASO targeting the Grn promoter (− strand) (antisense eG*eA*eA*eA*e[5mC]*e[5mC]*e[5mC]*e[5mC]*eT*eT*e[5mC]*e[5mC]*eA*eT*e[5mC]*eT*e[5mC]*eG*eA*e[5mC])”, the “mGRN mRNA FC” value (Neuro2a) is reported as 1.2 FC.

For “CO-3553: ASO targeting the Grn promoter (− strand) (antisense e[5mC]*eA*eA*eG*eT*eG*eT*eT*e[5mC]*eT*e[5mC]*eT*eG*e[5mC]*eG*eG*e[5mC]*eG*eG*e[5mC])”, under “Neuro2a”, the “mGRN mRNA FC” value was 1.3 FC.

With “CO-3562: ASO targeting the Grn promoter (− strand) (antisense eG*e[5mC]*e[5mC]*eT*eG*eT*eG*e[5mC]*eA*eA*eT*eT*eG*eA*eGeG*eG*eT*e[5mC]*e[5mC])”, the “mGRN mRNA FC” value (Neuro2a) came out at 1.1 FC.

Turning to “CO-3590: ASO targeting the Grn promoter (− strand) (antisense eT*eA*eA*eT*eG*e[5mC]*e[5mC]*e[5mC]*eT*eT*eA*eT*e[5mC]*eT*eT*eG*eA*eA*e[5mC]*eG)”, the “mGRN mRNA FC” value (Neuro2a) was 1.2 FC.

In the case of “CO-3589: ASO targeting the Grn promoter (− strand) (antisense eT*eT*eT*e[5mC]*eA*eA*e[5mC]*e[5mC]*e[5mC]*eT*eT*eG*e[5mC]*eT*eA*eG*eA*eG*eG*e[5mC])”, the “mGRN mRNA FC” value (Neuro2a) stood at 1.3 FC.

“CO-5306: CO-3595 modified to include varying PO/PS internucleotide bonds (antisense e[5mC]*e[5mC]*eT*eG*eA*eA*e[5mC]*eT*eGeTeAeTeGeGe[5mC]eTeG*eA*e[5mC]*e[5mC])”: where the note is “Table 16, Neuro2A”, the “40 nM FC (mGrn mRNA)” value came to 1.2 FC, the “80 nM FC (mGrn mRNA)” value is reported as 1.0 FC and the “160 nM FC (mGrn mRNA)” value is recorded as 1.3 FC.

As for “CO-3545: ASO targeting the Grn promoter (− strand) (antisense e[5mC]*eT*eA*eG*eT*eG*eG*eA*eA*eG*eA*eT*eG*eT*e[5mC]*eG*eG*eA*eG*e[5mC])”, the “mGRN mRNA FC” value (Neuro2a) is 1.7 FC.

With “CO-3551: ASO targeting the Grn promoter (− strand) (antisense eG*e[5mC]*eG*eT*eG*eA*eT*eG*eG*e[5mC]*eT*eG*eA*eG*eT*e[5mC]*e[5mC]*e[5mC]*eT*eG)”, under “Neuro2a”, the “mGRN mRNA FC” value is given as 1.5 FC.

For “CO-3596: ASO targeting the Grn promoter (− strand) (antisense e[5mC]*eT*e[5mC]*eT*eA*eT*eG*eT*eA*eA*eG*eA*e[5mC]*eT*e[5mC]*e[5mC]*e[5mC]*eA*e[5mC]*eT)”, the “mGRN mRNA FC” value (Neuro2a) was determined as 1.4 FC.

Regarding “CO-5311: CO-3595 modified to include varying PO/PS internucleotide bonds (antisense e[5mC]*e[5mC]*eTeGeAeAe[5mC]eTeGeTeAeT*eG*eG*e[5mC]*eT*eG*eA*e[5mC]*e[5mC])”, where the note is “Table 16, Neuro2A”, the “40 nM FC (mGrn mRNA)” value was 1.5 FC, the “80 nM FC (mGrn mRNA)” value is listed as 1.7 FC and the “160 nM FC (mGrn mRNA)” value is on record as 1.7 FC.

For the substance “CO-5298: CO-3544 modified to include PO/PS bonds (antisense eG*eT*eTe[5mC]eTe[5mC]e[5mC]e[5mC]eTeAeGe[5mC]*eT*eG*eT*eG*eT*eA*eG*eT)”, for the setting “Table 15, Neuro2a”, the “40 nM FC (mGrn mRNA)” value came to 1.3 FC, the “80 nM FC (mGrn mRNA)” value is 1.3 FC and the “160 nM FC (mGrn mRNA)” value turned out to be 1.5 FC.

As to “CO-3583: ASO targeting the Grn promoter (− strand) (antisense eT*e[5mC]*e[5mC]*e[5mC]*e[5mC]*e[5mC]*e[5mC]*eA*eG*eT*eT*eT*eG*eA*eG*e[5mC]*e[5mC]*eA*eA*eT)”, where the note is “Neuro2a”, the “mGRN mRNA FC” value was determined as 1.2 FC.

As to “CO-3564: ASO targeting the Grn promoter (− strand) (antisense eA*e[5mC]*eG*e[5mC]*eA*eG*eG*eT*eA*eG*eG*eA*eG*eG*eA*e[5mC]*e[5mC]*e[5mC]*eT*e[5mC])”, the “mGRN mRNA FC” value (Neuro2a) turned out to be 1.1 FC.

Regarding “CO-3591: ASO targeting the Grn promoter (− strand) (antisense e[5mC]*e[5mC]*eA*e[5mC]*e[5mC]*eA*eG*e[5mC]*e[5mC]*eT*eA*e[5mC]*eT*e[5mC]*e[5mC]*eA*e[5mC]*eA*eG*eG)”, the “mGRN mRNA FC” value (Neuro2a) is listed as 1.4 FC.

“CO-5310: CO-3595 modified to include varying PO/PS internucleotide bonds (antisense e[5mC]*e[5mC]*eTeGeAeAe[5mC]eTeGeTeAeTeGeG*e[5mC]*eT*eG*eA*e[5mC]*e[5mC])”: where the note is “Table 16, Neuro2A”, the “40 nM FC (mGrn mRNA)” value is on record as 1.1 FC, the “80 nM FC (mGrn mRNA)” value is recorded as 1.1 FC and the “160 nM FC (mGrn mRNA)” value was 1.3 FC.

On to “CO-3550: ASO targeting the Grn promoter (− strand) (antisense eG*eG*eT*eT*eG*eT*eG*eT*e[5mC]*eA*eG*e[5mC]*eT*eT*eT*eA*eT*eT*eT*e[5mC])”, for which, where the note is “Neuro2a”, the “mGRN mRNA FC” value is 0.9 FC.

As to “CO-5313: CO-3595 modified to include varying PO/PS internucleotide bonds (antisense e[5mC]*e[5mC]*eTeGeAeAe[5mC]eT*eG*eT*eA*eT*eG*eG*e[5mC]*eT*eG*eA*e[5mC]*e[5mC])”, for the setting “Table 16, Neuro2A”, the “40 nM FC (mGrn mRNA)” value is recorded as 1.3 FC, the “80 nM FC (mGrn mRNA)” value turned out to be 1.4 FC and the “160 nM FC (mGrn mRNA)” value was 1.5 FC.

For “CO-3577: ASO targeting the Grn promoter (− strand) (antisense e[5mC]*eT*eG*e[5mC]*e[5mC]*eA*eG*eG*e[5mC]*eG*eT*eG*eA*eA*eG*eA*eG*eA*e[5mC]*eA)”, the “mGRN mRNA FC” value (Neuro2a) stood at 1.1 FC.

Consider “CO-5290: CO-3544 modified to include PO/PS bonds (antisense eG*eT*eTe[5mC]eTe[5mC]e[5mC]e[5mC]eTeAeGe[5mC]eTeGeTeGeT*eA*eG*eT)”, for which, where the note is “Table 15, Neuro2a”, the “40 nM FC (mGrn mRNA)” value is given as 1.1 FC, the “80 nM FC (mGrn mRNA)” value was 1.0 FC and the “160 nM FC (mGrn mRNA)” value came out at 1.0 FC.

On to “CO-3579: ASO targeting the Grn promoter (− strand) (antisense eG*eA*e[5mC]*eT*eA*eT*eT*eT*eA*eT*e[5mC]*eT*eT*e[5mC]*eA*e[5mC]*e[5mC]*e[5mC]*eT*e[5mC])”, for which the “mGRN mRNA FC” value (Neuro2a) came to 1.2 FC.

Regarding “CO-3600: ASO targeting the Grn promoter (− strand) (antisense eG*eG*eA*eA*e[5mC]*eA*e[5mC]*e[5mC]*eT*eA*eT*eG*e[5mC]*eT*eA*eA*e[5mC]*eA*e[5mC]*e[5mC])”, under “Neuro2a”, the “mGRN mRNA FC” value was 1.5 FC.

As to “CO-3570: ASO targeting the Grn promoter (− strand) (antisense e[5mC]*eT*eA*eA*eT*e[5mC]*eA*e[5mC]*eA*eT*eG*eA*eT*e[5mC]*e[5mC]*e[5mC]*eT*eA*eG*eA)”, for the setting “Neuro2a”, the “mGRN mRNA FC” value is 1.2 FC.

For the substance “CO-5312: CO-3595 modified to include varying PO/PS internucleotide bonds (antisense e[5mC]*e[5mC]*eTeGeAeAe[5mC]eTeGeT*eA*eT*eG*eG*e[5mC]*eT*eG*eA*e[5mC]*e[5mC])”, for the setting “Table 16, Neuro2A”, the “40 nM FC (mGrn mRNA)” value is listed as 1.5 FC, the “80 nM FC (mGrn mRNA)” value was found to be 1.7 FC and the “160 nM FC (mGrn mRNA)” value is reported as 1.8 FC.

Turning to “CO-5303: CO-3595 modified to include varying PO/PS internucleotide bonds (antisense e[5mC]*e[5mC]*eTeGeAeAe[5mC]eTeGeTeAeTeGeGe[5mC]eTeG*eA*e[5mC]*e[5mC])”, where the note is “Table 16, Neuro2A”, the “40 nM FC (mGrn mRNA)” value was determined as 1.3 FC, the “80 nM FC (mGrn mRNA)” value was found to be 1.6 FC and the “160 nM FC (mGrn mRNA)” value stood at 1.8 FC.

With “CO-3568: ASO targeting the Grn promoter (− strand) (antisense e[5mC]*e[5mC]*eG*e[5mC]*e[5mC]*eT*e[5mC]*eT*eA*e[5mC]*eG*eT*eA*eG*eA*e[5mC]*eA*eA*eG*eT)”, the “mGRN mRNA FC” value (Neuro2a) was 1.2 FC.
